This is an account of results in ChEMBL document CHEMBL1135781 (J Med Chem, 2002).

This assay deals with Melatonin receptor (Homo sapiens, UniProt P48039+P49286). Put plainly: Ability to inhibit 2-[125I]iodomelatonin specific binding to human melatonin receptor type 1A (MT1) expressed in CHO cells. Type of assay: cell-based.

A word on the Ki: it is the dissociation constant of the complex between target and ligand, obtained from inhibition or displacement. A low value points to higher affinity. The compound `COc1ccc2c(c1)[C@H](CCNC(C)=O)CC2` returned a Ki of 0.0733 nM. Compound `COc1ccc2c(c1)C(CCNC(=O)C(F)(F)F)=C(c1ccccc1)C2` gave a Ki of 0.00602 nM. Compound `COc1ccc2c(c1)C(CCNC(C)=O)CC2` (stereo not drawn) yielded a Ki of 0.131 nM. Compound `COc1ccc2c(c1)C(CCNC(=O)C(F)(F)F)C(c1ccccc1)C2` (stereo not drawn) returned a Ki of 1.6 nM.

Compound `CCCC(=O)NCC[C@@H]1CCc2ccc(OC)cc21` displayed a Ki of 0.0321 nM.

As to `COc1ccc2c(c1)[C@@H](CCNC(C)=O)CC2`, the Ki is reported as 10.6 nM.

`CCCC(=O)NCC[C@H]1CCc2ccc(OC)cc21` registered a Ki of 43.7 nM.

`CCCC(=O)NCCC1CCc2ccc(OC)cc21` (stereo not drawn) had a Ki of 0.0553 nM.
